Laboratory results published in patent US7858790B2, “Modulators of muscarinic receptors” (Vertex Pharmaceuticals Incorporated, priority 2006, dated 2010).

How the values were obtained:
M4 muscarinic receptor = molecular target: T1, M4 muscarinic receptor (Homo sapiens, UniProt P08173); experiment: Functional mobilization of intracellular calcium (FLIPR) in CHO cells expressing M4 muscarinic receptor; format: cell-based; details: for M4 Activity: CHO cells expressing M4, calcium mobilization; for Emax: CHO, 100% efficacy is the maximum response obtained with the Carbachol control
T1 construct: expressed in transfected cells; host or cells: CHO (M4-CHO recombinant cell line)
T1 sequence (P08173 1-479): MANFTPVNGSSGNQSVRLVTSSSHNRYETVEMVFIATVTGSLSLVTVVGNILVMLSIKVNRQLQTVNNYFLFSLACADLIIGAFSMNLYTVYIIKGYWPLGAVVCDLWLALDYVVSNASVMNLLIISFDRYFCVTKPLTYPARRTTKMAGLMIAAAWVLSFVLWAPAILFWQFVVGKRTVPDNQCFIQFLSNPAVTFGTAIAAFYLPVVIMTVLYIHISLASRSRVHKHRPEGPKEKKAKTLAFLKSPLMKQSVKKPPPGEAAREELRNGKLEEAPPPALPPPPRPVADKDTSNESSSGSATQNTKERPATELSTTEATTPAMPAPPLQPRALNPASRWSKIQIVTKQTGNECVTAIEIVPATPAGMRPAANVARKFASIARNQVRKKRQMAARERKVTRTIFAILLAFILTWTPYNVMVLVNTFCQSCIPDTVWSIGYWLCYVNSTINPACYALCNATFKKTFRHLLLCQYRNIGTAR
Procedure: (§1) VI. Assays for Detecting and Measuring Inhibition Properties of Compounds Functional Mobilization of Intracellular Calcium to Determine Muscarinic Receptor Activity:
(§2) CHO cells expressing muscarinic receptors (M1 to M5) are grown as monolayers in tissue culture flasks at 37° C. in a humidified atmosphere containing 5% CO2 and passaged every 3-5 days. The growth media is Dulbecco's modified eagles medium (DMEM, Gibco Cat# 12430-054), containing 25 mM Hepes and supplemented with Fetal Bovine Serum (Hyclone, cat# SH30071.03), 0.1 mM of MEM non-essential amino acids (GIBCO, Cat# 11140-050), 1 mM MEM Sodium Pyruvate (GIBCO Cat# 11360-070) and 100 units/ml of Penicillin G and 100 μg/ml of Streptomycin (GIBCO Cat# 15140-122). The recombinant muscarinic receptor cell lines are grown under antibiotic pressure with media containing 25 μg/ml zeocin and 500 μg/ml G418 (M1-CHO), 4 μg/ml puromycin, 50 μg/ml zeocin and 2.5 μg/ml blasticidin (M2 and M4-CHO) or 50 μg/ml zeocin and 4 μg/ml puromycin (M3 and M5-CHO).
(§3) Cells are harvested at 80-90% confluence using Versene (GIBCO Cat# 15040-066), collected by centrifugation and seeded 18-24 hours prior to running the calcium assay at a density of 5,000-10,000 cells/well in […], clear-bottomed 384-well plates (BD Biocoat, poly-D-lysine, Cat#356663). The day of the experiment, the cells are washed with a plate washer (Bioteck Instruments, ELX 405) using bath buffer (140-mM NaCl, 4.5-mM KCl, 2-mM CaCl2, 1-mM MgCl2, 10-mM Hepes-Na, 10-mM Glucose, pH 7.4, with NaOH) containing 1 mM Probenecid. Next, the calcium dye Fluo-3 (25 μl/well of Fluo-3 μM at 4 μM, Molecular Probes F-1241, in Bath 1 buffer containing 1 mM Probenecid) is added to the 25 μl of Bath 1 remaining in each well after the plate wash and the dye is loaded at 37° C. in the tissue culture incubator for 60-90 min. The fluorescent dye is removed using the plate washer with Bath 1 containing 1 mM Probenecid, leaving 25 μl/well of this solution after the wash. Alternatively, cells can be loaded with the calcium indicator from Molecular Devices (Calcium 3 Assay Reagents, Cat # R7181) adding 5 μl of a 5× solution dye in Bath 1 containing 1 mM Probenecid (10 ml per dye flask cat# R7182 to generate a solution 20×) to 20 μl of the same buffer. After loading for 60 min, the experiment can be run without having to remove the dye.
(§4) Compounds are prepared at a 2× fold concentration in a 96-well plate (round bottom, Costar Corning cat# 3656), by reconstituting the pre-spotted compounds in bath 1 containing 1 mM probenecid. The final concentration DMSO is 0.5%, and the amount of DMSO is normalized across the assay plate. To determine an agonist action of the compounds on muscarinic receptors, the reconstituted compounds are added (25 μl compound/well) to the cell assay plate (containing 25 μl/well) using the multi-channel robotic system of the FLIPR 3 Instrument (Molecular Devices, Sunnyvale, Calif.). To determine a functional inhibitory-action of the compounds on muscarinic receptors, the reconstituted compounds are added (25 μl compound/well) to the assay plate and pre-incubated for 15 min prior to adding 25 μl of Carbachol at 3× the EC80 for each muscarinic subtype. Alternatively, the compounds can be co-applied simultaneously with the agonist. In both assay modes, the fluorescence is recorded for 60 sec (excitation wavelength is […] and emission wavelength 540 nm) using the FLIPR 3 instrument.
(§5) The potency, efficacy and selectivity of the muscarinic compounds were evaluated by screening the compound activity across the whole family (M1 to M5 cells). Compounds were also screened for activity on other proteins such as other GPCRs and ion channels to determine selectivity on M4 receptors.
(§6) Examples of activities and efficacies of the muscarinic compounds of formulae (I, Ia, and Ib) on modulating M1 and M4 receptors are shown below in Table 8. […]

M1 muscarinic receptor = molecular target: T2, M1 muscarinic receptor (Homo sapiens, UniProt P11229); experiment: Functional mobilization of intracellular calcium (FLIPR) in CHO cells expressing M1 muscarinic receptor; format: cell-based; details: for M1 Activity: CHO cells expressing M1, calcium mobilization; for Emax: CHO, 100% efficacy is the maximum response obtained with the Carbachol control
T2 construct: expressed in transfected cells; host or cells: CHO (M1-CHO recombinant cell line)
T2 sequence (P11229 1-460): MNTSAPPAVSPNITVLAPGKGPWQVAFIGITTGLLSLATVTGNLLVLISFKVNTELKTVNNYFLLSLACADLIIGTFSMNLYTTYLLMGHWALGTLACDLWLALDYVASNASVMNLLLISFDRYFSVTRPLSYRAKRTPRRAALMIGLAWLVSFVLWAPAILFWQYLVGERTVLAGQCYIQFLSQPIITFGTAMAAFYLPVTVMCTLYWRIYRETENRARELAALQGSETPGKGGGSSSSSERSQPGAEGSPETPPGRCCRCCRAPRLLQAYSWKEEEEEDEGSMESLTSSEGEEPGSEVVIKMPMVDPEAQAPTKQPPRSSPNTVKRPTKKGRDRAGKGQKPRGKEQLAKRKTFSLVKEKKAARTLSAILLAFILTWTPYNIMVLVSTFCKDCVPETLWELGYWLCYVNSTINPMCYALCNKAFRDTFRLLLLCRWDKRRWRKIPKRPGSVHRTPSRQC
Procedure: as §1, §2, §3, §4, §5, §6

Row | Compound | M4 Activity (M4 muscarinic receptor) | Emax (M4 muscarinic receptor) | M1 Activity (M1 muscarinic receptor) | Emax (M1 muscarinic receptor)
1 | CN(C)C(=O)C1=CC2(CCN(C3CCCCCC3)CC2)c2ccccc21 [compound 44] | +++ (activity was measured to be less than 2.0 μM) | 25 to 100% | + (activity was measured to be greater than 10.0 μM) | 25 to 100%
2 | CCC(CC)NC(=O)C1=CC2(CCN(C3CCN(C(=O)C4CC4)CC3)CC2)c2ccccc21 [compound 45] | + (activity was measured to be greater than 10.0 μM) | 25 to 100% | + (activity was measured to be greater than 10.0 μM) | < 25%
3 | CN(C)C(=O)C1=CCC2(CCN(CCC(C)(C)C)CC2)c2ccccc21 [compound 46] | +++ (activity was measured to be less than 2.0 μM) | 25 to 100% | ++ (activity was measured to be from 2.0 μM to 10.0 μM) | 25 to 100%
4 | O=C(NC1CCC1)C1=CC2(CCN(CC3CC4C=CC3C4)CC2)c2ccccc21 (centres unmarked) [compound 47] | +++ (activity was measured to be less than 2.0 μM) | 25 to 100% | ++ (activity was measured to be from 2.0 μM to 10.0 μM) | 25 to 100%
5 | CNC(=O)C1=CC2(CCN(CCCCSC)CC2)c2ccccc21 [compound 49] | + (activity was measured to be greater than 10.0 μM) | < 25% | + (activity was measured to be greater than 10.0 μM) | < 25%
6 | CCCC(C)NC(=O)C1=CC2(CCN(CC3CC4C=CC3C4)CC2)c2ccccc21 (centres unmarked) [compound 50] | +++ (activity was measured to be less than 2.0 μM) | 25 to 100% | + (activity was measured to be greater than 10.0 μM) | < 25%
7 | CC(C)(C)CCN1CCC2(CC=C(C#N)c3ccccc32)CC1 [compound 51, 1′-(3,3-dimethylbutyl)-2H-spiro[naphthalene-1,4′-piperidine]-4-carbonitrile] | +++ (activity was measured to be less than 2.0 μM) | 25 to 100% | +++ (activity was measured to be less than 2.0 μM) | 25 to 100%
8 | CC(C)NC(=O)C1=CCC2(CCN(CCC(C)(C)C)CC2)c2ccccc21 [compound 52] | + (activity was measured to be greater than 10.0 μM) | < 25% | + (activity was measured to be greater than 10.0 μM) | < 25%
9 | CCC(CC)NC(=O)C1=CC2(CCN(CCC3CCOCC3)CC2)c2ccccc21 [compound 53] | +++ (activity was measured to be less than 2.0 μM) | 25 to 100% | + (activity was measured to be greater than 10.0 μM) | < 25%
10 | O=C(O)C1=CC2(CCN(CC3CCCCC3)CC2)c2ccccc21 [compound 54] | + (activity was measured to be greater than 10.0 μM) | < 25% | + (activity was measured to be greater than 10.0 μM) | < 25%
11 | CCC(CC)NC(=O)C1=CC2(CCN(CCCCSC)CC2)c2ccccc21 [compound 55] | + (activity was measured to be greater than 10.0 μM) | < 25% | + (activity was measured to be greater than 10.0 μM) | < 25%
12 | CN(C)C(=O)C1=CC2(CCN(CCC(C)(C)C)CC2)c2ccccc21 [compound 56] | +++ (activity was measured to be less than 2.0 μM) | 25 to 100% | + (activity was measured to be greater than 10.0 μM) | < 25%
13 | CCC(CC)NC(=O)C1=CC2(CCNCC2)c2ccccc21 [compound 57] | + (activity was measured to be greater than 10.0 μM) | < 25% | + (activity was measured to be greater than 10.0 μM) | < 25%
14 | CNC(=O)C1=CC2(CCN(C3CCCCC3)CC2)c2ccccc21 [compound 58] | +++ (activity was measured to be less than 2.0 μM) | 25 to 100% | + (activity was measured to be greater than 10.0 μM) | 25 to 100%
15 | CN(C)C(=O)C1=CC2(CCN(CC3CCCCC3)CC2)c2ccccc21 [compound 59] | +++ (activity was measured to be less than 2.0 μM) | 25 to 100% | + (activity was measured to be greater than 10.0 μM) | < 25%
16 | CCOC(=O)N1CCC(N2CCC3(C=C(C(=O)N(C)C)c4ccccc43)CC2)CC1 [compound 60] | +++ (activity was measured to be less than 2.0 μM) | 25 to 100% | +++ (activity was measured to be less than 2.0 μM) | 25 to 100%
17 | CN(C)C(=O)C1=CC2(CCN(C3CCCCC3)CC2)c2ccccc21 [compound 61] | +++ (activity was measured to be less than 2.0 μM) | 25 to 100% | + (activity was measured to be greater than 10.0 μM) | < 25%
18 | CCOC(=O)C1=CC2(CCN(CCC(C)(C)C)CC2)c2ccccc21 [compound 62] | +++ (activity was measured to be less than 2.0 μM) | 25 to 100% | + (activity was measured to be greater than 10.0 μM) | 25 to 100%
19 | CCOC(=O)N1CCC(N2CCC3(CC=C(C#N)c4ccccc43)CC2)CC1 [compound 63] | +++ (activity was measured to be less than 2.0 μM) | 25 to 100% | +++ (activity was measured to be less than 2.0 μM) | 25 to 100%
20 | CN(C)C(=O)C1=CC2(CCN(C3C[C@@H]4CC[C@@H]3C4)CC2)c2ccccc21 (some centres unmarked) [compound 64] | +++ (activity was measured to be less than 2.0 μM) | 25 to 100% | + (activity was measured to be greater than 10.0 μM) | < 25%
